Where “and” joins values, the source holds several entries; their conditions need not be identical. Equal entries are not always repeated.
Tests used:
[1] = Pharmacokinetic analysis of serum levels after a single intraperitoneal dose; assay type: in vivo; conditions: ip, mouse, single intraperitoneal dose 30 mg/Kg
Protocol: All experiments were pre-approved by the University of Melbourne Animal Ethics Committee (Ethics ID: 0911153.1). […] Five different time points were chosen to measure drug level: 15, 30, 60 120 and 240 min after intraperitoneal injection of the recipients. At each time points, treated mice were killed by lethal injection of 0.01 mL/g of Lethobarb® (325 mg pentobarbitone sodium/mL). Following this, blood was collected via intra-cardiac puncture, blood was then allowed to clot at room temperature for 15 min, then centrifuged at 1500 × g for 6 min to separate out the cells and serum. The serum was collected, weighed, snap frozen in dry ice and stored at −80 °C.
Drug-free mouse serum was used as negative controls. Serum blanks, including calibration standard and quality control samples, were prepared by protein precipitation. Selectivity was evaluated by comparing chromatograms of six blank blood samples from six different sources to make sure there were no significant interfering peaks at retention time of analysis. The maximum serum concentration (Cmax) and the time to reach Cmax (Tmax) were directly obtained from the experimental data. The time needed for 50% reduction in the serum concentration (terminal half-life; T1/2) was calculated from the mean values (n = 5) using GraphPad Prism 8.

[2] = tested on: normal human CD34-positive HSPCs; assay: Clonogenic assay of human CD34-positive HSPCs from healthy donors, 10 days (LC50); assay type: cell-based; parameters: Relative number of colonies (% DMSO): unit of the concentration uncertain
Protocol: (§1) Cultures were incubated at 37 °C in 10% CO2 for 10 days in presence of 10 μg/mL rhIL-3 (#200-03, Pepro Tech), 25 μg/mL rhSCF (#300-07, Pepro Tech), 25 μg/mL rhFLT3-L (#300-19, Pepro Tech), rhIL-6 (#200-06, Pepro Tech), 500 nM StemRegenin 1 (SR1; #1227633-49-9, Stem Cell Technologies) and 35 nM UM-171 (#72914, Stem Cell Technologies)[93],[94], then stained with acetyl-cholinesterase and counted for the number of colonies.

[3] = as above; assay type: cell-based; parameters: Relative number of colonies (% DMSO): unit of the concentration uncertain; conditions: human
Protocol: as §1

[4] = in vitro; conditions: mouse, Relative % viable cells
Protocol: Pre-leukemic and leukemic thymocytes were purified by flow cytometry and co-cultured on GFP-positive OP9 and OP9-DL1 stromal cell lines, as described previously. Thymocytes were co-cultured in reconstituted alpha-MEM medium (#12318, Gibco, Grand Island NY, USA) supplemented with 20% FCS (#12318), HEPES 10 mM (#15630-080), sodium pyruvate 1 mM (#11360-070), β-mercaptoethanol 55 μM (#21985-023), Glutamax 2 mM (#15750-060), 1% Penicillin/Streptomycin (#15140-122), 5 ng/mL rmFLT-3 ligand (#250-31 L, Pepro Tech), 5 ng/mL rmIL-7 (#217-17, Pepro Tech) and 25 ng/mL rmSCF (#250-03, Pepro Tech). After 48 h of co-culture, thymocytes were counted and analysed by FACS. […]
viability of wild-type (WT), Lmo2 Tg, Lmo2Tg;STAT5-CA Tg and Lmo2Tg;N1-ICD Tg DN3a thymocytes […]
normalized to cells treated with vehicle (%DMSO). Mean ± SEM of n=4 biological replicates. b, […]
thymocytes from 6-week old wild-type (WT), Lmo2 Tg, Lmo2Tg;STAT5-CATg and Lmo2Tg ;N1-ICD Tg mice. Mean ± SD of n=4 biological replicates are shown. 2-way ANOVA with Tukey’s correction test; […]
(1 picture or pasted object on this page, not shown here)
*P<0.05, *** P<0.001 compared to WT; #P<0.05, ##P<0.01, ###P<0.001 compared to L mo2Tg. c, Levels of pStat5 (left) after stimulation with IL-7 , as well as Hes1 expression (right) after co-culture on OP9- […]
(0.2 µM), Ruxolitinib (0.2 µM) and DAPT (0.1 µM). Unstimulated cells were used as negative controls (dashed line). Student’s t -test, ** P<0.01, *** P<0.001 compared to unstimulated cells. MFI ± SEM, 1-way ANOVA with Tukey’s correction test; **P<0.01, *** P<0.001 compared to vehicle. d, Clonogenic assay of normal murine hematopoietic stem and progenitor cells (HSPCs) cultured in the presence […]
± SD, Student’s t -test ( n=4) **P<0.01 compared to vehicle. e, Relative viability of wild-type (WT), […]
2 (0.2 µM), Ruxolitinib (0.2 µM) and DAPT (0.1 µM) for 48 hours. Viability was normalized to cells treated with vehicle (%DMSO, which was reported as 100). Mean ± SEM, 2-way ANOVA with Tukey’s correction test, **P<0.01, *** P<0.001 compared to vehicle.

[5] = tested on: normal murine hematopoietic stem and progenitor cells (HSPCs)
Protocol: Bone marrow cells collected from 2-month-old WT mice or CD34-positive (CD34+) stem and progenitor bone marrow cells from healthy donors were seeded at a density of 5 × 10^4 cells per 35 mm dish in semi-solid agar for GM colony growth, as previously described[92]. Cultures were incubated at 37 °C in 10% CO2 for 10 days in presence of 10 μg/mL rhIL-3 (#200-03, Pepro Tech), 25 μg/mL rhSCF (#300-07, Pepro Tech), 25 μg/mL rhFLT3-L (#300-19, Pepro Tech), rhIL-6 (#200-06, Pepro Tech), 500 nM StemRegenin 1 (SR1; #1227633-49-9, Stem Cell Technologies) and 35 nM UM-171 (#72914, Stem Cell Technologies)[93],[94], then stained with acetyl-cholinesterase and counted for the number of colonies.

CCCCCCCCNC(=O)C(C#N)=Cc1cn(CCCN(C)C)c2ccccc12 [Dynole 34-2, 2-Cyano-N-octyl-3-(1-(3-dimethylaminopropyl)-1H-indol-3-yl)-acrylamide]
Cmax ([1]; read-out: average maximum concentration (Cmax) in serum): > 4 µM | half-life ([1]; read-out: estimated half-life in serum): 30 min | Relative number of colonies (% DMSO) ([2]; CD34_1003, dose 0.04 (unit uncertain)): 99.5 % DMSO and 94.6 % DMSO | Relative number of colonies (% DMSO) ([2]; CD34_1003, dose 0.2 (unit uncertain)): 88.8 % DMSO and 76.1 % DMSO | Relative number of colonies (% DMSO) ([2]; CD34_1003, dose 1 (unit uncertain)): 82.9 % DMSO and 71.2 % DMSO | Relative number of colonies (% DMSO) ([2]; CD34_1003, dose 5 (unit uncertain)): 48.8 % DMSO and 56.6 % DMSO | Relative number of colonies (% DMSO) ([2]; CD34_1003, dose 25 (unit uncertain)): 0.0 % DMSO | Relative number of colonies (% DMSO) ([2]; CD34_1602, dose 0.04 (unit uncertain)): 116.1 % DMSO and 109.5 % DMSO | Relative number of colonies (% DMSO) ([2]; CD34_1602, dose 0.2 (unit uncertain)): 118.9 % DMSO and 100.0 % DMSO | Relative number of colonies (% DMSO) ([2]; CD34_1602, dose 1 (unit uncertain)): 106.3 % DMSO and 87.8 % DMSO | Relative number of colonies (% DMSO) ([2]; CD34_1602, dose 5 (unit uncertain)): 89.5 % DMSO and 73.0 % DMSO | Relative number of colonies (% DMSO) ([2]; CD34_1602, dose 25 (unit uncertain)): 0.0 % DMSO | Relative number of colonies (% DMSO) ([2]; CD34_2104, dose 0.04 (unit uncertain)): 102.6 % DMSO | Relative number of colonies (% DMSO) ([2]; CD34_2104, dose 0.2 (unit uncertain)): 104.6 % DMSO and 97.4 % DMSO | Relative number of colonies (% DMSO) ([2]; CD34_2104, dose 1 (unit uncertain)): 68.7 % DMSO and 76.9 % DMSO | Relative number of colonies (% DMSO) ([2]; CD34_2104, dose 25 (unit uncertain)): 0.0 % DMSO | CC50 at 10 days ([3]; normal human CD34-positive HSPCs, clonogenic assay 10 days, Mean ± SEM): 23 ± 5.72 µM | CC50 at 10 days ([3]; sample 06-02-2018 CD34): 8.8 µM | CC50 at 10 days ([3]; sample 10-03-2018 CD34): 9.85 µM | CC50 at 10 days ([3]; sample 18/03/2016 CD34): 7.09 µM | CC50 at 10 days ([3]; sample 21-04-2018 CD34): 7.34 µM | CC50 at 10 days ([3]; sample 22/05/2018 CD34): 17.2 µM | CC50 at 10 days ([3]; sample 24/06/2016 CD34): 11.3 µM

N#CC[C@H](C1CCCC1)n1cc(-c2ncnc3[nH]ccc23)cn1 [Ruxolitinib]
viability at 48 h, 0.04 mM [4]: 83.2% | viability at 48 h, 0.2 mM [4]: 39.6% | growth of normal hematopoietic stem and progenitor cells (HSPCs), clonogenic assay [5]: significantly impaired
